Experimental data published in patent US11103497B2, “Treatment of imatinib resistant leukemia” (Wyeth LLC, priority 2007, dated 2021).

Details: not given

**Q.** Which melting point does the source give for COc1cc(Nc2c(C#N)cnc3cc(OCCN4CCN(C)CC4)c(OC)cc23)c(Cl)cc1Cl [Example 4, 4-[(2,4-Dichloro-5-methoxyphenyl)amino]-6-methoxy-7-[2-(4-methyl-1-piperazinyl)ethoxy]-3-quinolinecarbonitrile] here?
**A.** 165 to 167 °C

**Q.** With CCOc1cc2c(Nc3cc(OC)c(Cl)cc3Cl)c(C#N)cnc2cc1OCCCN1CCN(C)CC1 [Example 10, 4-[(2,4-Dichloro-5-methoxyphenyl)amino]-6-ethoxy-7-[3-(4-methylpiperazin-1-yl)propoxy]quinoline-3-carbonitrile] as the molecule, how does the melting point read?
**A.** 137 to 138 °C

**Q.** Which melting point does the source give for CCOc1cc2c(Nc3cc(OC)c(Cl)cc3Cl)c(C#N)cnc2cc1OCCC1CCN(C)CC1 [Example 15, 4-[(2,4-Dichloro-5-methoxyphenyl)amino]-6-ethoxy-7-[2-(1-methylpiperidin-4-yl)ethoxy]quinoline-3-carbonitrile] here?
**A.** 174 to 176 °C

**Q.** With CCOc1cc2c(Nc3cc(OC)c(Cl)cc3Cl)c(C#N)cnc2cc1OCCN1CCN(C)CC1 [Example 14, 4-[(2,4-Dichloro-5-methoxyphenyl)amino]-6-ethoxy-7-[2-(4-methyl-1-piperazinyl)ethoxy]quinoline-3-carbonitrile] as the molecule, how does the melting point read?
**A.** 141 to 143 °C

**Q.** For CCN1CCC(COc2cc3ncc(C#N)c(Nc4cc(OC)c(Cl)cc4Cl)c3cc2OC)CC1 [Example 9, 4-[(2,4-Dichloro-5-methoxyphenyl)amino]-7-[(1-ethylpiperidin-4-yl)methoxy]-6-methoxyquinoline-3-carbonitrile], which melting point is on record?
**A.** 192 to 195 °C

**Q.** For CCOc1cc2c(Nc3cc(OC)c(Cl)cc3Cl)c(C#N)cnc2cc1OCCCC1CCN(C)CC1 [Example 13, 4-[(2,4-Dichloro-5-methoxyphenyl)amino]-6-ethoxy-7-[3-(1-methylpiperidin-4-yl)propoxy]quinoline-3-carbonitrile], which melting point is on record?
**A.** 148 to 151 °C

**Q.** With CCOc1cc2c(Nc3cc(OC)c(Cl)cc3Cl)c(C#N)cnc2cc1OCCCN1CCN(CC)CC1 [Example 12, 4-[(2,4-Dichloro-5-methoxyphenyl)amino]-6-ethoxy-7-[3-(4-ethylpiperazin-1-yl)propoxy]quinoline-3-carbonitrile] as the molecule, how does the melting point read?
**A.** 127 to 130 °C

Details: patients; cited from earlier work

**Q.** For Cc1nc(Nc2ncc(C(=O)Nc3c(C)cccc3Cl)s2)cc(N2CCN(CCO)CC2)n1 [Dasatinib], which adverse effects is on record?
**A.** hematologic toxicity and edema
